Measured values reported in PMC8222254, “Self-assembly of an anion receptor with metal-dependent kinase inhibition and potent in vitro anti-cancer properties” (Nature Communications, 2021).

Columns and labels:
AMPK = target: T1, AMPK (Homo sapiens, UniProt Q13131); assay: ADP-Glo Kinase Assay in presence of varying AMP; type: biochemical
T1 construct: purchased Promega
Experimental: ATP competition kinase assays were performed by the MRC Protein Phosphorylation and Ubiquitination Unit International Centre for Kinase Profiling (University of Dundee). Inhibition of recombinant human AMPK (α1β2γ1) by 10μM [L2Cu3]^6+ or [L2Zn3]^6+ was evaluated at five different ATP concentrations (0.5, 2, 20, 200 and 500 µM ATP). Substrate competition assays were performed using the ADP-Glo Kinase Assay (Promega) and recombinant human AMPK (α1β2γ1) (Promega) with concentrations of the provided AMPK substrate (SAMStide substrate, Promega) ranging from 1 to 15 mg/ml. Following pre-incubation of substrate with kinase for 5 min 10 µM [L2Cu3]^6+, [L2Zn3]^6+ or solvent control and 50 µM ATP was added to start the kinase reaction. For determination of the effects of AMP on AMPK inhibition by [L2Zn3]^6+, the ADP-Glo Kinase Assay (Promega) was performed in presence of varying of AMP (0, 80, 160 μM).

Src = target: T2, Src (Homo sapiens, UniProt P12931); assay: In vitro phosphatase assay with recombinant kinase, immunoblotting; type: biochemical; details: 50 μM complex, 4 h, with ATP
T2 construct: His tag (N); host or cells: baculovirus expression system
T2 sequence (P12931 whole entry): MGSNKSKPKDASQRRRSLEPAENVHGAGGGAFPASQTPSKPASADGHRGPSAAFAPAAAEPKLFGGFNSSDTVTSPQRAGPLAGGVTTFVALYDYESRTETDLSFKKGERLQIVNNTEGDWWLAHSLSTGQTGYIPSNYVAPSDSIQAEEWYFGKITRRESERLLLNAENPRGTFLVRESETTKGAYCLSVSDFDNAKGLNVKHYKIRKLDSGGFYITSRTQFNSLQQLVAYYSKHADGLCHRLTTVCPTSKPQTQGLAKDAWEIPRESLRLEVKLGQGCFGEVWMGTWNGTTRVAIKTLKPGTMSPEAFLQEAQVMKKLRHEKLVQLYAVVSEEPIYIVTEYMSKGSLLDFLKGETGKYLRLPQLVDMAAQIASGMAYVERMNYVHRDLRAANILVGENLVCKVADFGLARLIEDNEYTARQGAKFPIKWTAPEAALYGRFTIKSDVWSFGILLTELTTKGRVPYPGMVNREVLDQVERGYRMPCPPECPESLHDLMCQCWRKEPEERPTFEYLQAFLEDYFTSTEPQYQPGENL
Experimental: (§1) 800 ng of purified recombinant human AMPK (α1β2γ1) or Src kinase (MRC PPU, International Centre for Kinase Profiling, University of Dundee) was incubated with 50 μM [L2Cu3]^6+, [L2Zn3]^6+, or vehicle control in 50 mM Tris HCl pH 7.5 containing 50 μM ATP for 4 h at 37 °C. For [L2Zn3]^6+ time course and concentration titration experiments, 800 ng recombinant human AMPK was used (α1β2γ1 AMPK isoform for pT172 AMPKα1 detection or α2β1γ1 AMPK isoform for pS108 AMPKβ1 detection). For evaluation of ATP dependency and influence of AMP, 50 µM ATP was replaced with 50 µM AMP or omitted. Reactions were stopped by addition of Laemmli’s buffer (Biorad) to 1x and heating at 95 °C for 5 min before analysis by SDS PAGE and immunoblotting for detection of specific phosphorylated amino acids of AMPK and Src proteins.
(§2) Protein lysates and recombinant proteins were resolved on 15% SDS polyacrylamide gels. Proteins were electroblotted onto nitrocellulose membrane by wet transfer in 1xTris Glycine buffer (Biorad) at 35 mA overnight at room temperature. After blocking of membranes, these were incubated with primary antibody overnight at 4 °C before addition of rabbit or mouse secondary antibody (HRP-conjugated; 1:5000, Dako P0448 or P0260) for 1 h at room temperature and development of blots by enhanced chemiluminescence. Primary antibodies were: anti-Src (total) (Cell Signalling Technology #2123 1:1000), anti-phosphorylated Src (Y527) (Cell Signalling Technology #21055 1:1000), anti-phosphorylated Src (Y416) (Cell Signalling Technology #69435 1:1000), anti-AMPKα (total) (Cell Signalling Technology #2532 1:1000), anti-phosphorylated AMPKα (T172) (Cell Signalling Technology #2535 1:1000), anti-AMPKβ1 (total) (Cell Signalling Technology #4150 1:1000), anti-phosphorylated AMPKβ1 (S108) (abcam ab156890 1:500), anti-phospho-Tyr (pan) (Cell Signalling Technology #8954 1:2000), anti-p53 (Santa Cruz, DO-1 clone, 1:1000,), anti-phosphorylated LDH-A (Y10) (Cell Signalling Technology #8176 1:1000), anti-LDH-A/B (total) (abcam ab134187 1:5000), anti-β-actin (Merck MAB1501, 1:40,000). Quantification of signals was performed by densitometry using Image J software. Uncropped and unprocessed scans are provided in the Source Data file.

[1] = target: recombinant human AMPK (pT172 AMPKα1, pS108 AMPKβ1) (Homo sapiens, UniProt Q9Y478); assay: as above; type: biochemical; details: concentration titration 0-50µM
recombinant human AMPK (pT172 AMPKα1, pS108 AMPKβ1), sequence (Q9Y478 whole entry): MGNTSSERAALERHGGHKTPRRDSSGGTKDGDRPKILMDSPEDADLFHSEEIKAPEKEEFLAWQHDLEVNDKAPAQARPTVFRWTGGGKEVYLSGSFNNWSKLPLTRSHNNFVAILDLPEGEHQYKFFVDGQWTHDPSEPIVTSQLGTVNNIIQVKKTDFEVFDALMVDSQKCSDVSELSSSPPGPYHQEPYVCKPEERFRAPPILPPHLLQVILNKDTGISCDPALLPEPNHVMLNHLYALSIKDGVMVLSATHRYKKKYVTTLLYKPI
recombinant human AMPK (pT172 AMPKα1, pS108 AMPKβ1), sequence (P54646 whole entry partner): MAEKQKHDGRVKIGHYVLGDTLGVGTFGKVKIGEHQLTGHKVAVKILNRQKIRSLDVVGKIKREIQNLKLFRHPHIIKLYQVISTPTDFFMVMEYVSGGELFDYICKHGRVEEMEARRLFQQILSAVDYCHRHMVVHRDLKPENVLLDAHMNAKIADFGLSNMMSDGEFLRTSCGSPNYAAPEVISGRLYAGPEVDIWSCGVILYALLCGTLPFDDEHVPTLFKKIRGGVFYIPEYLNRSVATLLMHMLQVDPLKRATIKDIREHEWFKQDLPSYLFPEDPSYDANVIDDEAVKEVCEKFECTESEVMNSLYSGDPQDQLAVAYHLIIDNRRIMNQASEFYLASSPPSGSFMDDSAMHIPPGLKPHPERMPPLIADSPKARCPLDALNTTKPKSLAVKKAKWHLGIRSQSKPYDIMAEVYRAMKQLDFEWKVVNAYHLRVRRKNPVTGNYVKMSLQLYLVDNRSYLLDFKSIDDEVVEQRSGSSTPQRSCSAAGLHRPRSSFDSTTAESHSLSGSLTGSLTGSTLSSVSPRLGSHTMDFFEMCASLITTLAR
recombinant human AMPK (pT172 AMPKα1, pS108 AMPKβ1), sequence (P54619 whole entry partner): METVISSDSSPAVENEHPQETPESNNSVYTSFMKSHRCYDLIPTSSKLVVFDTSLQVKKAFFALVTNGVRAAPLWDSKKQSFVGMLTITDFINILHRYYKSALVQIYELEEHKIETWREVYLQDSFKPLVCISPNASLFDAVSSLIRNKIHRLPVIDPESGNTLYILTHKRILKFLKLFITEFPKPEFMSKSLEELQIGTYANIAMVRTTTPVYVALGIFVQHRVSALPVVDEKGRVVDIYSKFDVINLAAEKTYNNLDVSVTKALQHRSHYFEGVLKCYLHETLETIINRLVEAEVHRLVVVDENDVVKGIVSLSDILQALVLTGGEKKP
Experimental: as §1, §2

ARPE-19 = assay: Metabolic flux analysis (Cell Energy Phenotype Assay, OCR/ECAR); type: cell-based, human; set-up: Baseline EACR / Mean Baseline EACR / Stressed OCR / Mean Stressed OCR / Stressed EACR / Mean Stressed EACR / Baseline OCR / Mean Baseline OCR: unit not given here; details: for Baseline EACR / Baseline OCR / Stressed EACR / Stressed OCR / Mean Baseline EACR / Mean Baseline OCR / Mean Stressed EACR / Mean Stressed OCR: ARPE19 cells
Experimental: ARPE-19 and HCT116 cells were seeded in 8-well XFp plates (Agilent) 48 h prior to metabolic flux analyses using the Agilent XFp extracellular flux analyser. Cell seeding densities were 2500 cells/well for ARPE-19 cells and 7500 cells/well for HCT116 cells in order to achieve equivalent cell confluency (~70% confluency and in log phase growth) at the time of analyses. Cells were treated with 25 μM of [L2Zn3]^6+ or solvent control (0.2% DMSO) for 1 h or 20 h before metabolic flux analyses using the Cell Energy Phenotype Assay (Agilent) in accordance with the manufacturer’s instructions. For determination of maximal respiratory and glycolytic rates (metabolic reserve) following real-time quantification of basal respiratory and glycolytic rates, a ‘metabolic stress mix’ of 1 µM oligomycin and FCCP (0.5 µM for ARPE-19, 0.25 µM for HCT116) was injected into the media.

[2] = 1h exposure, mean of 3 runs (Fig. 9c)
[3] = 20h exposure, mean of 3 runs (Fig. 9d)

T1 sequence (Q13131 whole entry): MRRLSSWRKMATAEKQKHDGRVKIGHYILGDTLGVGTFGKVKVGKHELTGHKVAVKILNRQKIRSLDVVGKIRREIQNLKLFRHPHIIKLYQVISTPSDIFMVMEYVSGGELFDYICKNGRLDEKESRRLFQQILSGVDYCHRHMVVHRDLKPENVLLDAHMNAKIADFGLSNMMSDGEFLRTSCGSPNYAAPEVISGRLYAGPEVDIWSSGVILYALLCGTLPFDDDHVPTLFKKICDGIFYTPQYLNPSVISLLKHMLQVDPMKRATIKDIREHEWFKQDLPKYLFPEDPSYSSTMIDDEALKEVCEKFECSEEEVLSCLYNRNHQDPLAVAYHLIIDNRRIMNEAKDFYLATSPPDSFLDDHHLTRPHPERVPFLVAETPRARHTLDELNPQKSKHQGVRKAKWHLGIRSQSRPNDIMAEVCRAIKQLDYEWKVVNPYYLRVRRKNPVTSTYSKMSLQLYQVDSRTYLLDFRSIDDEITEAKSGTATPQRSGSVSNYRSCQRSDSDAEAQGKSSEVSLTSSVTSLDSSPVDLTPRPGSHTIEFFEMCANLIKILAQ
T1 sequence (O43741 whole entry partner): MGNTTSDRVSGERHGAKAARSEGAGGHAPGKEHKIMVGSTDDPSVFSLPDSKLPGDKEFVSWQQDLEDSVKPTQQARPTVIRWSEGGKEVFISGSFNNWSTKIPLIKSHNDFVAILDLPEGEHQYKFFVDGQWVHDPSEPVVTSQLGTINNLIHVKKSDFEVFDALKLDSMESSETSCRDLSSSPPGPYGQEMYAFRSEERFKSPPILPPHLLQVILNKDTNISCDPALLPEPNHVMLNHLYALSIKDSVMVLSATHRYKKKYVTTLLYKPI
T1 sequence (P54619 whole entry partner): as the sequence (P54619 whole entry partner) above

## CC(=O)[O-].CC(=O)[O-].CC(=O)[O-].CC(=O)[O-].CC(=O)[O-].CC(=O)[O-].[Zn+2].[Zn+2].[Zn+2].c1ccc(-c2csc(NCCN(CCNc3nc(-c4ccccn4)cs3)CCNc3nc(-c4ccccn4)cs3)n2)nc1.c1ccc(-c2csc(NCCN(CCNc3nc(-c4ccccn4)cs3)CCNc3nc(-c4ccccn4)cs3)n2)nc1 [[L2Zn3]6+]
AMPK; in the absence of AMP
  AMPK activity remaining: ~ 30%
AMPK; in the presence of AMP (80 or 160 microM)
  AMPK activity remaining: 20-30%
Src
  decrease in Y527P relative to total Src levels: ~ 30%
  increase in Y416P levels: ~ 5 fold
[1]
  concentration from which dephosphorylation is evident: ≥ 12.5 µM
ARPE-19; 1h exposure, Run 1 (Fig. 9c)
  Baseline EACR: 18.76
  Baseline OCR: 23.36
  Stressed EACR: 24.63
  Stressed OCR: 30.28
ARPE-19; 1h exposure, Run 2 (Fig. 9c)
  Baseline EACR: 18.49
  Baseline OCR: 21.88
  Stressed EACR: 25.17
  Stressed OCR: 27.97
ARPE-19; 1h exposure, Run 3 (Fig. 9c)
  Baseline EACR: 18.70
  Baseline OCR: 20.12
  Stressed EACR: 24.11
  Stressed OCR: 25.60
ARPE-19; [2]
  Mean Baseline EACR: 18.65
  Mean Baseline OCR: 21.79
  Mean Stressed EACR: 24.64
  Mean Stressed OCR: 27.95
ARPE-19; 20h exposure, Run 1 (Fig. 9d)
  Baseline EACR: 13.57
  Baseline OCR: 9.08
  Stressed EACR: 15.01
  Stressed OCR: 12.02
ARPE-19; 20h exposure, Run 2 (Fig. 9d)
  Baseline EACR: 10.60
  Baseline OCR: 7.37
  Stressed EACR: 11.55
  Stressed OCR: 9.95
ARPE-19; 20h exposure, Run 3 (Fig. 9d)
  Baseline EACR: 12.23
  Baseline OCR: 7.73
  Stressed EACR: 13.58
  Stressed OCR: 9.28
ARPE-19; [3]
  Mean Baseline EACR: 12.13
  Mean Baseline OCR: 8.06
  Mean Stressed EACR: 13.38
  Mean Stressed OCR: 10.41
ARPE-19; ARPE-19, 25 μM, 1 h
  glycolysis (ECAR): unaffected
